# Assay results reported in patent US20090325959A1 (priority 2008, published 2009).
# Where two headings read alike, the source gives them in different places.
# How the values were obtained:
# Assay type in all cases: biochemical
# [1] = biological target: T1, ROCK2 (Homo sapiens, UniProt O75116); assay: Rho kinase inhibition assay (IMAP fluorescence polarization), ROCK2;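 also: kinase reaction started with 10 µM ATP and run 60 min at room temperature, then phosphorylated substrate captured on IMAP beads for 30 min and fluorescence polarization read in mP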
# T1 construct: purchased Upstate/Chemicon 14-451
# T1 sequence (O75116 11-552 limits assumed): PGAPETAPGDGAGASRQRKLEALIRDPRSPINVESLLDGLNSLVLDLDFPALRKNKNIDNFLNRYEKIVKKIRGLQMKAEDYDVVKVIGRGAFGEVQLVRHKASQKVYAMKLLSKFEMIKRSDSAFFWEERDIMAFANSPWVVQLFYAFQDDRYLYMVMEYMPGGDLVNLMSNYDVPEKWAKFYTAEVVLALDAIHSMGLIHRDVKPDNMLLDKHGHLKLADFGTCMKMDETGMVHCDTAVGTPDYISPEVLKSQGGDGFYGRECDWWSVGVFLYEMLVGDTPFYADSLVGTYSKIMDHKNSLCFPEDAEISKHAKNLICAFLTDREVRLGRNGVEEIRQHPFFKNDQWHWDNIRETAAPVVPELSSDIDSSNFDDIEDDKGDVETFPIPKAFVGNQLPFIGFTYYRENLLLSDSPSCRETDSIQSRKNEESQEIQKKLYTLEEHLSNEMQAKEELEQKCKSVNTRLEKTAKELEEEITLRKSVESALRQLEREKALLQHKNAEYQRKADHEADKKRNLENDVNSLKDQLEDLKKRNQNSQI
# Method: (§2) Following the pre-incubation, 10 μM ATP was added to initiate the reaction. After 60 minutes at room temperature, Molecular Devices IMAP™ binding solution was added to bind phosphorylated substrate. After 30 minutes of incubation in the presence of the IMAP™ beads, the fluorescence polarization was read and the ratio was reported as mP. IC50 values for compounds and EC50 values for ATP were calculated using the Prism software from Graphpad.
# [2] = biological target: T2, IRAK1 (Homo sapiens, UniProt P51617); assay: Kinase panel screen (KinaseProfiler), IRAK1; settings: 10 μM ATP
# T2 construct: purchased Upstate, Millipore Bioscience Division (KinaseProfiler service)
# T2 sequence (P51617 whole entry): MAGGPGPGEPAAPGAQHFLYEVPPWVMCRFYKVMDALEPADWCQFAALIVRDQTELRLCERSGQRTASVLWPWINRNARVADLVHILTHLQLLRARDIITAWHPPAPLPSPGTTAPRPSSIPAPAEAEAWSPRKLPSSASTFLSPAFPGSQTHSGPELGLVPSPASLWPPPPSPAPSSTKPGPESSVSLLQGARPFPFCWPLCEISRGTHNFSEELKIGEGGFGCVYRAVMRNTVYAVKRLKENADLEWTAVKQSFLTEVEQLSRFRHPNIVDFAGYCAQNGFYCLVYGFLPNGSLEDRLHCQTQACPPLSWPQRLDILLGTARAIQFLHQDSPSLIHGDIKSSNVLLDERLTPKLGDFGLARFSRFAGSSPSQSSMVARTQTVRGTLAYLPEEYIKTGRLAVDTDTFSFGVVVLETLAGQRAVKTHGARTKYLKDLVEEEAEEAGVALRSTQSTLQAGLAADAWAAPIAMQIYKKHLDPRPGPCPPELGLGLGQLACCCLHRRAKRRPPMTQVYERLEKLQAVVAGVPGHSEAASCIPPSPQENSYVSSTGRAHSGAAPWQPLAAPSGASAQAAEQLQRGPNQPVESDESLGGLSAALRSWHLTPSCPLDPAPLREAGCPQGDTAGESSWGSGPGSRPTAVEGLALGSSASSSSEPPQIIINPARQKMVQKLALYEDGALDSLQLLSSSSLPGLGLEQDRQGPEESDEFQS
# Method: (§1) Compounds of Formulae I and II were examined for activity against a selected panel of kinases using the KinaseProfiler™ enzyme profiling services (Upstate, Millipore Bioscience Division). Percent kinase activity at 10 μM and 1 μM test compound and 10 μM ATP was determined against 40 wild-type recombinant human kinases according to Upstate's standard protocol: ASK1, BTK, CSK, c-RAF, GCK, GSK3β, IKKα, IKKβ, IRAK1, IRAK4, JNK1α1, JNK2α2, JNK3, ERK1, ERK2, MAPKAP-K2, MAPKAP-K3, MEK1, MKK4, MKK6, MKK7β, Mnk2, MSK1, PAK3, PDK1, PRAK, ROCK1, Rsk2, SAPK2a, SAPK2b, SAPK3, SAPK4, SRPK1, SRPK2, Syk, TAK1, TBK1, PI3-Kβ, PI3-Kγ, PI3-Kδ.
# [3] = biological target: T3, ROCK1 (Homo sapiens, UniProt Q13464); assay: Rho kinase inhibition assay (IMAP fluorescence polarization), ROCK1;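 also: kinase reaction run 60 min at room temperature, then phosphorylated substrate captured on IMAP beads for 30 min, with fluorescence polarization read in mP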
# T3 construct: purchased Upstate/Chemicon 14-601
# T3 sequence (Q13464 17-535 limits assumed): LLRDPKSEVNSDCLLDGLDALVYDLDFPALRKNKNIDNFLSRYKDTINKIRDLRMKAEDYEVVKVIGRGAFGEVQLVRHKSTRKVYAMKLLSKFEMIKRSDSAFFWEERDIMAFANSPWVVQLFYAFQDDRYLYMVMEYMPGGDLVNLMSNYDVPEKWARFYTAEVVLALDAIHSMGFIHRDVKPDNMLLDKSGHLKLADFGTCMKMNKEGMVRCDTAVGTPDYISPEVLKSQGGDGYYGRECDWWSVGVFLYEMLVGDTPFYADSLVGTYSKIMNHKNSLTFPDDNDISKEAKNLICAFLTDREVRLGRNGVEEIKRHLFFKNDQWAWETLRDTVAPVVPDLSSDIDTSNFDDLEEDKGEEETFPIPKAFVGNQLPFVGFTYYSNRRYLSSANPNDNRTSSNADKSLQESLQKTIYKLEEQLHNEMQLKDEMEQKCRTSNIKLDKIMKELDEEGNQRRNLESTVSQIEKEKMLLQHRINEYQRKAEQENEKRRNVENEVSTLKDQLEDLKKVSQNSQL
# Method: as §2
# [4] = biological target: T4, IRAK4 (Homo sapiens, UniProt Q9NWZ3); assay: Kinase panel screen (KinaseProfiler), IRAK4; settings: 10 μM ATP
# T4 construct: purchased Upstate, Millipore Bioscience Division (KinaseProfiler service)
# T4 sequence (Q9NWZ3 1-460): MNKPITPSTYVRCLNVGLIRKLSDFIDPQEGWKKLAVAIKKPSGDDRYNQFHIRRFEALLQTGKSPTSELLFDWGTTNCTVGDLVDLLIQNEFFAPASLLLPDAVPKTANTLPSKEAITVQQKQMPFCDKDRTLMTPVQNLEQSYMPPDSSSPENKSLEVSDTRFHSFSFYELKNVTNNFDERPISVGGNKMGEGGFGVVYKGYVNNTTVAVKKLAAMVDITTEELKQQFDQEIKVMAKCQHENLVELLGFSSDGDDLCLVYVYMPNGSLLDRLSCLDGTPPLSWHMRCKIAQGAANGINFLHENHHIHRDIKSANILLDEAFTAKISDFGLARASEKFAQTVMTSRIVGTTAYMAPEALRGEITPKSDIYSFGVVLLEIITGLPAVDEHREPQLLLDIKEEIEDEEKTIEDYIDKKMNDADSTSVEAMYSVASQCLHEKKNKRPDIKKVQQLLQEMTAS
# Method: as §1
compound,measurement,setting,value
"NC(=O)Cn1ccc2cc(CN3CC[C@@H](Nc4cccc5cnccc45)C3)ccc21 [Compound 2.059, (R)-2-(5-((3-(isoquinolin-5-ylamino)pyrrolidin-1-yl)methyl)-1H-indol-1-yl)acetamide]",Ki,"[1]; 10 μM ATP, read-out: ROCK2 Ki, Avg",2.7 nM
same,Ki,"[1]; average Ki, read-out: ROCK2 Ki",2.7 nM
same,activity at 1 µM,"[2]; 1 μM test compound, read-out: IRAK1 Percent inhibition, 1 μM",87%
same,activity at 10 µM,"[2]; 10 μM test compound, read-out: IRAK1 Percent inhibition, 10 μM",30%
same,Ki,"[3]; Avg, 10 μM ATP",3.9 nM
same,Ki,[3]; average Ki,3.9 nM
same,activity at 1 µM,"[4]; 1 μM test compound, read-out: IRAK4 Percent inhibition, 1 μM",63%
same,activity at 10 µM,"[4]; 10 μM test compound, read-out: IRAK4 Percent inhibition, 10 μM",22%
